# Source: ChEMBL document CHEMBL1777804, “Part 3: Design and synthesis of proline-derived α2δ ligands” (Bioorg Med Chem Lett, 2011)
# Key:
# [1] = Displacement of [3H]gabapentin from Voltage-dependent calcium channel subunit alpha-2/delta in pig cerebral cortex; format: tissue-based, Sus scrofa
# [2] = Oral bioavailability in rat; format: ADME, organism-based; conditions: in vivo
# [3] = Dissociation constant, pKa of the compound; format: physicochemical
# [4] = species on record: Rattus norvegicus; test: Unbound clearance in rat urine; format: ADME, organism-based; conditions: in vivo
# [5] = Half life in rat; format: ADME, organism-based; conditions: in vivo
# [6] = Plasma protein binding in rat; format: ADME, cell-free; conditions: read-out: PPB (converted)
# [7] = Inhibition of Voltage-dependent calcium channel subunit alpha-2/delta
# [8] = Lipophilicity, log D of the compound; format: physicochemical; conditions: octanol/water
# [9] = Plasma protein binding in human; format: ADME, cell-free; conditions: read-out: PPB (converted)
# [10] = Clearance in dog at 0.5 mg/kg, po; format: ADME, organism-based, Canis lupus familiaris; set-up: dose 0.5 mg/kg, route oral; conditions: in vivo
# [11] = Ratio of drug level in CSF to plasma in rat; format: ADME
# [12] = Half life in dog at 0.5 mg/kg, po; format: ADME, organism-based, Canis lupus familiaris; set-up: dose 0.5 mg/kg, route oral; conditions: in vivo
smiles,measurement,setting,value
O=C(O)[C@@H]1C[C@H](Cc2cc(F)ccc2F)CN1,IC50,[1],10 nM
O=C(O)[C@@H]1C[C@H](Oc2cccc(Cl)c2)CN1,bioavailability,[2],100%
same,pKa,[3],8.9
same,CL,[4],41 mL/min/kg
same,half-life,[5],0.4 h
same,IC50,[1],4 nM
same,fraction unbound,[6],0.19
NCC1(CC(=O)O)CCCCC1 [GABAPENTIN],IC50,[7],140 nM
CC(C)C[C@H](CN)CC(=O)O [PREGABALIN],IC50,[7],80 nM
O=C(O)[C@@H]1C[C@H](Cc2cc(Cl)ccc2Cl)CN1,IC50,[1],5 nM
O=C(O)[C@@H]1C[C@H](Cc2ccccc2F)CN1,IC50,[1],108 nM
O=C(O)[C@@H]1C[C@H](Cc2ccccc2Cl)CN1,CL,[4],15 mL/min/kg
same,logD,[8],0.6
same,half-life,[5],0.5 h
same,IC50,[1],8 nM
same,fraction unbound,[6],0.67
CCc1cccc(C[C@@H]2CN[C@H](C(=O)O)C2)c1,IC50,[1],27 nM
O=C(O)[C@@H]1C[C@H](Cc2cccc(F)c2F)CN1,IC50,[1],27 nM
O=C(O)[C@H]1C[C@@H](Cc2cccc(F)c2)CN1,IC50,[1],> 10000 nM
O=C(O)[C@@H]1C[C@H](OCc2ccc(Cl)cc2)CN1,CL,[4],26 mL/min/kg
same,IC50,[1],48 nM
same,fraction unbound,[6],0.65
O=C(O)[C@@H]1C[C@H](Cc2ccccc2)CN1,IC50,[1],272 nM
COc1cccc(C[C@@H]2CN[C@H](C(=O)O)C2)c1,IC50,[1],28 nM
Cl.O=C(O)[C@@H]1C[C@H](Cc2cccc(F)c2)CN1,bioavailability,[2],89%
same,pKa,[3],10.1
same,CL,[4],6 mL/min/kg
same,fraction unbound,[9],0.73
same,logD,[8],0.1
same,CL/F,[10],0.4 mL/min/kg
same,Kp,[11],0.004
same,half-life,[5],1.6 h
same,IC50,[1],17 nM
same,half-life,[12],26 h
same,fraction unbound,[6],0.82
O=C(O)[C@@H]1C[C@H](COc2cccc(F)c2)CN1,CL,[4],7 mL/min/kg
same,fraction unbound,[9],0.32
same,logD,[8],-0.3
same,half-life,[5],1.4 h
same,IC50,[1],25 nM
same,fraction unbound,[6],0.91
O=C(O)[C@@H]1C[C@H](Cc2cccc(OC(F)(F)F)c2)CN1,IC50,[1],4 nM
O=C(O)[C@@H]1C[C@H](COc2cccc(Cl)c2)CN1,IC50,[1],13 nM
